What all share (experiment): NCI anticancer screen, dose series, 48 h
In assay [1] the test system is SF-539 CNS.
The subject of assay [2] is A498 renal.
The subject of assay [3] is HOP-92 NSCLC.
The subject of assay [4] is SK-OV-3 ovarian.
For assay [5], the system named is KM12 colon.
Assay [6] concerns M14 melanoma.
Assay [7] has as its system NCI-H460 lung.
Assay [8] concerns NCI-H522 lung.
The test system of assay [9] is OVCAR-4 ovarian.
The test system of assay [10] is DU-145 prostate.
Assay [11] deals with BT-549 breast.
In assay [12] the test system is MDA-MB-435.

Structures are written as SMILES.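 48-hour exposure; five concentrations; linearly interpolated endpoints. Definition used: TGI = concentration required for complete inhibition of growth.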

With `O=C(CCN(CCO)CCO)Nc1ccc2c(c1)C(=O)c1ccc(NC(=O)CCN(CCO)CCO)cc1C2=O`, the TGI was 22.3 µM in [1]; 37.9 µM in [2]; greater than 100 µM in assay [3]; greater than 100 µM in assay [4]; 31.2 µM in [5]; 38.3 µM in [6]. For the same molecule, the values for the TGI in assay [7], in assay [8] and in assay [9] were 22.7 µM, 19.7 µM and greater than 100 µM, respectively.
Consider `CCOc1ccc(NCC(=O)N2CC(=O)Nc3ccccc32)cc1`, for which the TGI in assay [1], in assay [3], in assay [4], in assay [5], in [6] and in [7] was greater than 100 µM each time. Also, the TGI in [8] and in [9] was greater than 100 µM each time.
Regarding `CCCCCCCCCCCCCCCC(=O)NC1CCc2cc(O)c(O)c(O)c2-c2ccc(SC)c(=O)cc21` (stereo not given), the TGI in [1] stood at 9.2 µM; in assay [2], 39.5 µM; in assay [3], 8.28 µM; in [4], 29.5 µM; in [5] it was 20.3 µM; in assay [6] it was 25 µM. Also, the TGI in [7] stood at 19.6 µM; in assay [8] it was 14.6 µM; in assay [9], 28.9 µM.
On to `CC(=O)Nc1ccc(-c2nnc(SCC(=O)Nc3ccccc3Cl)o2)cc1`, for which the TGI in assay [1], in assay [2], in [4], in [5], in [6] and in assay [7] was greater than 100 µM throughout. Besides, the TGI in [8] and in assay [9] was greater than 100 µM each time.
Turning to `CC(SC1=CC(=O)c2c(Cl)ccc(O)c2C1=O)C(=O)O` (stereo not given), the TGI in [1] was 32.8 µM; in assay [2], greater than 100 µM; in assay [3], 38.6 µM; in assay [5], 38.3 µM; in assay [7], 69.4 µM.
On to `CCn1c(=O)c2c(=O)[nH][nH]c2c2ccccc21`, for which the TGI in assay [1], in [10], in [2], in assay [3], in assay [5] and in [11] was greater than 100 µM in each case. The TGI in assay [7], in assay [12], in [8] and in [9] was greater than 100 µM each time.
Consider `Cc1ccc(S(=O)(=O)N(c2ccccc2F)C2CCCCC2O)cc1` (stereo not given), for which the TGI was greater than 100 µM in assay [1]; 96.7 µM in assay [10]; greater than 100 µM in assay [2]; 64 µM in assay [4]; greater than 100 µM in assay [5]; greater than 100 µM in [6]. The TGI was 61.8 µM in assay [11], greater than 100 µM in [7], 48.5 µM in assay [12] and greater than 100 µM in assay [9].
As to `CCc1cc(Cc2cc(CC)c(NC(=O)C3=CC(=O)CC(c4ccc(OC)cc4)O3)c(CC)c2Cl)c(Cl)c(CC)c1NC(=O)C1=CC(=O)CC(c2ccc(OC)cc2)O1` (stereo not given), the TGI in assay [1] stood at 38.9 µM; in assay [2] it was 39.9 µM; in [3] it was 39.7 µM; in assay [4], 32.2 µM; in [5], 26.9 µM; in assay [6] it was 31.6 µM. Moreover, the values for the TGI in [7] and in [9] were 32.6 µM and 54.8 µM, respectively.
In the case of `O=C(Cc1ccccc1)N/N=C(/CCN1CCCC1)CC(c1ccccc1)c1c(O)c2ccccc2oc1=O` (stereo not given), the TGI in assay [1], in assay [10], in [2], in [3], in assay [4] and in [5] was greater than 100 µM in each case. Further, the TGI in [6], in assay [11], in [12], in assay [8] and in [9] was greater than 100 µM in each case.
Turning to `Cc1ccc(-c2c(C#N)c(-c3ccc(N(C)C)cc3)c(C#N)c(=O)n2NS(=O)(=O)c2ccccc2)cc1`, the TGI was 83.4 µM in assay [1]; greater than 100 µM in [2]; greater than 100 µM in assay [3]; greater than 100 µM in [4]; greater than 100 µM in assay [5]; greater than 100 µM in assay [6]. Moreover, the TGI in assay [11], in assay [7], in [12], in assay [8] and in [9] was greater than 100 µM in each case.
In the case of `O=C1/C(=C/c2cccc([N+](=O)[O-])c2)CCCc2ccccc21`, the TGI in [1] turned out to be 28.6 µM; in [10], 28.2 µM; in [3], 29.6 µM; in [4], 63.8 µM; in [5], 16.5 µM; in assay [6] it was 26.7 µM. In addition, the TGI in assay [11] worked out at 28.1 µM; in [7], 34.1 µM; in [12] it was 21.4 µM; in assay [8] it was 19.9 µM; in assay [9] it was 33.4 µM.
Consider `COc1ccc2c(OC)c3ccoc3nc2c1O`, for which the TGI in assay [1], in assay [2], in [4], in assay [5], in assay [6] and in assay [7] was greater than 100 µM each time. Besides, the TGI in assay [8] and in [9] was greater than 100 µM each time.
Take `c1ccc(C2=NN(c3ccccc3)C3(S2)SC(c2ccccc2)(c2ccccc2)c2ccccc23)cc1` (stereo not given): the TGI in assay [1], in assay [2], in assay [3], in assay [4], in [5] and in [6] was greater than 100 µM each time. Also, the TGI in [7], in assay [8] and in assay [9] was greater than 100 µM in each case.
Take `CC(=O)OC1[C@H]2c3cc4c(cc3CN3CCC(C[C@@H]1OC(C)=O)C23)OCO4` (stereo not given in full): the TGI in assay [1], in assay [4], in [5], in assay [6], in [7] and in assay [8] was greater than 75 µM in each case.
Take `N#Cc1c(-c2ccccc2)c(C#N)c(=O)n(NS(=O)(=O)c2ccccc2)c1O`: the TGI in [1], in assay [2], in [3], in assay [4], in [5] and in [6] was greater than 100 µM in each case. Also, the TGI in [11], in [7], in [12], in assay [8] and in assay [9] was greater than 100 µM in each case.
For `COc1ccc2c(c1)c(Cc1c(C)n(C)c3ccc(OC)cc13)c(C)n2C`, the TGI in assay [1], in [2], in assay [3], in [4], in assay [5] and in [6] was greater than 100 µM in each case. The TGI in assay [7], in [8] and in assay [9] was greater than 100 µM throughout.
For the molecule `O=S(=O)(CC1=NC2C=CC=CC2N=C1)NCc1ccccc1` (stereo not given), the TGI in [1], in assay [2], in assay [3], in [4], in assay [5] and in [6] was greater than 100 µM throughout. The TGI in assay [7], in [8] and in assay [9] was greater than 100 µM each time.
As for `Cc1ccc2sc3cc(=O)cc(C)c-3nc2c1`, the TGI in [1], in [3], in assay [4], in assay [5], in assay [6] and in [7] was greater than 100 µM in each case. Further, the TGI in assay [8] was greater than 100 µM; in [9], 52.4 µM.
Consider `CCCCOC(=O)/C(CC(=O)C=C(C)C)=N\NS(=O)(=O)c1ccc(C)cc1`, for which the TGI in assay [1], in assay [2], in [3], in assay [4], in assay [5] and in assay [6] was greater than 100 µM in each case. Also, the TGI in [7], in [8] and in assay [9] was greater than 100 µM throughout.
With `Cc1ccc(S(=O)(=O)N/N=C2\C(=O)C3CC2C(Cl)C3Cl)cc1` (stereo not given), the TGI in assay [2], in [3], in assay [4], in assay [6], in [7] and in assay [9] was greater than 100 µM throughout.
As for `C1=CCN(c2ccccc2)CC1`, the TGI was greater than 100 µM in assay [1]; greater than 100 µM in [2]; 61.6 µM in assay [3]; greater than 100 µM in assay [4]; greater than 100 µM in assay [5]; 44.8 µM in assay [6]. Moreover, the results for the TGI in [7] and in assay [8] were greater than 100 µM and 30.4 µM, respectively.
As to `COc1ccc(NS(=O)CCc2ccccc2)cc1` (stereo not given), the TGI in assay [1], in [10], in [5], in assay [6], in assay [7] and in [12] was greater than 100 µM each time. In assay [8], this molecule registered a TGI greater than 100 µM.
Regarding `O=C(Nc1ccc(C(F)(F)F)cc1[N+](=O)[O-])C(=O)C(C(=O)c1ccc2ccccc2c1)C1OC(=O)c2ccccc21` (stereo not given), the TGI is 5.03 µM in assay [1]; 19.7 µM in assay [2]; 4 µM in assay [3]; greater than 100 µM in assay [4]; 24.4 µM in [5]; 28.1 µM in [6]. Moreover, the TGI in assay [7] is 15.6 µM; in assay [8], 16.4 µM; in assay [9], greater than 50.4 µM.
With `COC(=O)c1c/c(=N\NC(=O)CC(=O)Nc2ccccc2Cl)c2ccccc2o1`, the TGI in [1], in assay [4], in [5], in [6], in assay [7] and in assay [8] was greater than 100 µM in each case. Also, in assay [9], the TGI is greater than 100 µM.
Turning to `CSC1=N/C(=C\c2cccs2)C(=O)N1CN1CCCCC1`, the TGI in assay [10] is greater than 100 µM; in assay [2], greater than 100 µM; in assay [3] it was 96.5 µM; in assay [4] it was greater than 100 µM; in [5], greater than 100 µM; in assay [6], greater than 100 µM. The same molecule returned a TGI in [12] greater than 100 µM.
On to `O=C1/C(=C/c2cccc([N+](=O)[O-])c2)COc2ccccc21`, for which the TGI in assay [2] was greater than 84.4 µM; in [3], greater than 72.8 µM; in assay [4], greater than 62.8 µM; in [5], 6.29 µM; in assay [6], 3.38 µM; in assay [7] it was greater than 25.2 µM. For the same molecule, the TGI worked out at 3.1 µM in assay [8] and 6.28 µM in [9].
On to `O=C(O)Cc1cc(=O)oc2cc(O)c(Cl)cc12`, for which the TGI in [1], in assay [2], in assay [3], in assay [4], in assay [5] and in [6] was greater than 100 µM each time. For the same molecule, the TGI in assay [7], in assay [8] and in assay [9] was greater than 100 µM each time.
In the case of `N#CCCc1nc2ccc(Br)cc2c(=O)n1-c1ccc(O)c([N+](=O)[O-])c1`, the TGI in assay [1] is 34.4 µM; in assay [2] it was greater than 100 µM; in assay [3], 51.6 µM; in assay [4], 85.2 µM; in assay [5] it was 34.5 µM; in assay [6], 44.7 µM. For the same molecule, the TGI in [7] is 66.9 µM; in assay [8] it was 31.8 µM; in [9], 38.8 µM.
With `Cc1nc2ccccc2nc1NS(=O)(=O)c1ccc(N)cc1`, the TGI in [1], in assay [2], in assay [3], in assay [5], in assay [6] and in assay [8] was greater than 100 µM throughout. The TGI in assay [9] is greater than 100 µM.
Consider `C1CSCC2(COC2)CS1`, for which the TGI in assay [10], in assay [2], in [3], in [4], in [5] and in assay [7] was greater than 100 µM in each case. For the same molecule, the TGI in [12], in assay [8] and in assay [9] was greater than 100 µM in each case.

The values above are taken from PubChem BioAssay (NCI).
